{"source": "ChEMBL document CHEMBL3046763", "about": "(J Pestic Sci, 2000)", "key": {"[1]": {"test_system": "Spodoptera litura", "assay": "Insecticidal activity against Spodoptera litura assessed as mortality by filter paper method", "assay_type": "functional"}, "[2]": {"assay": "Acute toxicity in po dosed Mus musculus ddY (mouse)", "assay_type": "organism-based", "details": "in vivo, read-out: LC50 (the source's name)"}, "[3]": {"test_system": "Delphacodes", "assay": "Insecticidal activity against Delphacodes striatellus assessed as mortality at 10 ppm by test tube method", "assay_type": "functional"}, "[4]": {"test_system": "Spodoptera litura", "assay": "Insecticidal activity against Spodoptera litura assessed as mortality at 50 ppm by filter paper method", "assay_type": "functional"}, "[5]": {"test_system": "Delphacodes", "assay": "Insecticidal activity against Delphacodes striatellus assessed as mortality at 50 ppm by test tube method", "assay_type": "functional"}}}
{"compound": "CCOC(=O)CC(SP(=S)(OC)OC)C(=O)OCC", "note": "(stereo not given) [MALATHION]", "values": [{"measurement": "LC50", "setting": "[1]", "value": 8.3, "unit": "µg/mL"}, {"measurement": "LD50", "setting": "[2]", "value": 347, "unit": "mg/kg"}, {"measurement": "mortality at 10 ppm", "setting": "[3]", "value": 77, "unit": "%"}, {"measurement": "mortality at 50 ppm", "setting": "[4]", "value": 100, "unit": "%"}, {"measurement": "mortality at 50 ppm", "setting": "[5]", "value": 100, "unit": "%"}]}
